Experimental data taken from article PMC2747021, “Synergistic Antibacterial and Anti-Inflammatory Activity of Temporin A and Modified Temporin B In Vivo” (PLoS ONE, 2009).
No end group written: not given here.

What was measured:
[1] = tested on: Staphilococcus.aureus A170; conditions: single peptide; MIC100, MH broth, about 10^6 CFU/ml, 37°C 20 h, absorbance 600 nm, triplicate
[2] = tested on: Staphilococcus .aureus A172; conditions: 20 h
[3] = tested on: Salmonella enterica serovar Paratyphi; assay: Antibacterial activity, MIC100 broth dilution; type: cell-based; conditions: single peptide; MIC100, MH broth, about 10^6 CFU/ml, 37°C 20 h, absorbance 600 nm, triplicate
[4] = tested on: Staphilococcus aureus 007; conditions: 20 h
[5] = tested on: Escherichian coli; conditions: 20 h
[6] = tested on: Listeria monocytogenes; conditions: 20 h

With KKYLLPIVGNLLKSLL-NH2 [TB-YK] as the substance, how does the MIC [1] read?
Its MIC is 20 µg/mL.

What about the MIC [2] of the same substance?
The MIC was 25 µg/mL.

What about the MIC [3] of the same substance?
The MIC was 20 µg/mL.

What about the MIC [4] of the same substance?
The MIC was 10 µg/mL.

What about the MIC [5] of the same substance?
Its MIC is 20 µg/mL.

What about the MIC [6] of the same substance?
The MIC was 10 µg/mL.
